In test [1] the test system is P. aeruginosa strain 6077. In words: P. aeruginosa thermal injury model. The test is classed as in vivo, CF-1 mice. Particulars: 15 and 5 mg/kg; versus antibody-treated control; FIG. 8E. The protocol:
FIG. 8 (A-G): Anti-Psl monoclonal antibodies Cam-003 and WapR-004 are active in a P. aeruginosa keratitis model and thermal injury model. Mice were treated with a control IgG1 antibody or Cam-003 at 45 mg/kg (A, B) or 15 mg/kg (C, D) or PBS or a control IgG1 antibody or Cam-003 at 45 mg/kg or WapR-004 at 45 mg/kg or 15 mg/kg or 5 mg/kg (F, G) 24 hours prior to infection with 6077 (O11-cytotoxic—2×10^6 CFU). Immediately before infection, three 1 mm scratches were made on the left cornea of each animal followed by topical application of P. aeruginosa in a 5 μl inoculum. 24 hours after infection, the corneal pathology scores were calculated followed by removal of the eye for determination of viable CFU. Differences in pathology scores and viable CFU were determined by the Mann-Whitney U-test. (A) P=0.0001, (B) P<0.0001, (C) P=0.0003, (D) P=0.0015. (F) and (G) Cam-003 (45 mg/kg) vs. WapR-004 (45 mg/kg): P=0.018; Cam-003 (45 mg/kg) vs. WapR-004 (15 mg/kg): P=0.0025; WapR-004 (45 mg/kg) vs. WapR-004 (15 mg/kg): P=0.1331; WapR-004 (5 mg/kg) vs. Ctrl: P<0.0001. Results are representative of five independent experiments. (E) Survival analysis from Cam-003 and R347 treated CF-1 mice in a P. aeruginosa thermal injury model after 6077 infection (2×10^5 CFU) (log-rank: R347 vs. Cam-003 15 mg/kg, P=0.0094; R347 vs. Cam-003 5 mg/kg, P=0.0017). […]

Test [2] relates to P. aeruginosa strains PAO1, 33356, 6294, 6077, 6206. Put plainly: Acute pneumonia model, organ burden. The test is classed as in vivo, BALB/c mice. The protocol:
Antibodies or PBS were administered 24 hours before infection in each model. P. aeruginosa acute pneumonia, keratitis, and thermal injury infection models were performed as described (DiGiandomenico, A., et al., Proc Natl Acad Sci USA 104, 4624-4629 (2007)), with modifications. In the acute pneumonia model, BALB/c mice (The Jackson Laboratory) were infected with P. aeruginosa strains suspended in a 0.05 ml inoculum. In the thermal injury model, CF-1 mice (Charles River) received a 10% total body surface area burn with a metal brand heated to 92° C. for 10 seconds. Animals were infected subcutaneously with P. aeruginosa strain 6077 at the indicated dose. For organ burden experiments, acute pneumonia was induced in mice followed by harvesting of lungs, spleens, and kidneys 24 hours post-infection for determination of CFU.

A further test concerns PAO1ΔpslA. In words: OPK assay, Psl-deficient PAO1ΔpslA and complemented strain. The format is cell-based, Pseudomonas aeruginosa. Particulars: complemented PAO1ΔpslA in contrast to the mutant; FIGS. 3F, 3G. The protocol: This example describes the evaluation of prioritized human IgG1 antibodies to promote OPK of P. aeruginosa. […] OPK assays were performed as described in (DiGiandomenico, A., et al., Infect Immun 72, 7012-7021 (2004)), with modifications. Briefly, assays were performed in 96-well plates using 0.025 ml of each OPK component; P. aeruginosa strains; diluted baby rabbit serum; differentiated HL-60 cells; and monoclonal antibody. In some OPK assays, luminescent P. aeruginosa strains, which were constructed as described (Choi, K. H., et al., Nat Methods 2, 443-448 (2005)), were used. Luminescent OPK assays were performed as described above but with determination of relative luciferase units (RLUs) using a Perkin Elmer ENVISION Multilabel plate reader (Perkin Elmer). […]
This example describes two series of experiments evaluating the ability of PMB-mAb conjugates to promote OPK of P. aeruginosa. In the first experiments (FIGS. 15A-B), conjugate-mediated OPK activity by human HL-60 neutrophil cell line in the presence of rabbit complement was evaluated using P. aeruginosa strains expressing bacterial luciferase as described in Example 2. […] In the second series of experiments, reduction in luminescence following 2 h incubation relative to control lacking mAb was used to determine % killing.

On to “Cam-003: human IgG1 anti-Psl monoclonal antibody, VH SEQ ID NO: 1 and VL SEQ ID NO: 2”, for which, in test [1], the “protection (survival)” value is reported as “significant protection”. Further, the “dissemination to the spleen and kidneys” value in test [2] (PAO1, 6294 and 6077, FIGS. 7A, 7C, 7D) is “marked effect in reducing dissemination to the spleen and kidneys”. The “lung burden (viable CFU)” value in test [2] (PAO1, 33356, 6294, 6077, 24 hours post-infection, FIGS. 7A-D) is given as “effective at reducing P. aeruginosa lung burden against all four strains tested”. Also, in test [2] (cytotoxic strain 6077, FIG. 7D), the “lung burden, dose dependence” value was “the low dose was as effective as the higher dose”. Further, in the test on PAO1ΔpslA, the “ability to mediate opsonic killing” value is “restored”.

These data come from patent US10370436B2, “Anti-pseudomonas Psl binding molecules and uses thereof” (priority 2011, dated 2019).
